In patent US6825340B2, “Methods and reagents for inactivating ribonucleases” (Ambion, Inc., priority 1998, dated 2004):
Entries after “also recorded” stand apart in the source; their conditions may differ.

Columns and labels:
[1] = tested on: AMV reverse transcriptase; experiment: Reverse transcription reaction (RETROscript kit), dCTP[α-32P] incorporation; format: biochemical; details: 20 mM reducing reagent
Experimental: FIG. 2. […] Reverse transcriptions were performed using the RETROscript™ kit (Ambion, Inc.). Mouse total RNA in DEPC-treated water was reverse transcribed with either MMLV or AMV reverse transcriptase in the presence or absence of 20 mM DTT. dCTP[α^32P] was included in the reactions to measure the efficiency of reverse transcription. Following incubation at 42° C. for 1 h, 5 μl of each reaction was subjected to TCA precipitation to measure the amount of dCTP[α^32P] incorporated into cDNA by reverse transcription.
The reverse transcription reactions were performed using the RETROscript™ kit (Ambion, Inc.). The following were assembled with or without 20 mM of the reducing reagents in a final volume of 19 μl: dNTPs (0.5 mM each), oligo dT (5 μM), 0.4 μl dCTP[α-^32p] (3000 Ci/mmol), 10 mM Tris-HCl (pH 8.3): 50 mM KCl: 1.5 mM MgCl2, mouse brain total RNA (4 μg). The reaction mixtures were incubated at 65° C. for 10 minutes. 1 μl (100 units) of AMV or MMLV reverse transcriptase were added and then the reactions were incubated at 42° C. for 1 hour. Reverse transcription by either enzyme was not inhibited by DTT (FIG. 2) or by DTE or β-mercaptoethanol.

DNase I = DNase I (Bos taurus, UniProt P00639); experiment: DNase I activity after reducing/heat treatment, plasmid DNA degradation; format: biochemical; details: 20 mM reducing reagent in water; DNase I 0.4 units/μl; 60° C. for 20 minutes
Experimental: DNase I is commonly used to degrade contaminating DNA in RNA preparations. To test whether the inactivation method affected DNase I activity, DNase I (final concentration of 0.4 units/μl) was added to water containing 20 mM DTT, DTE or β-mercaptoethanol. The mixture was incubated at 60° C. for 20 minutes. After the heat treatment, the DNase I activity was tested by incubating the treated DNase I with plasmid DNA (0.2 μg/μl ) at 37° C. for one hour followed by electrophoresis in a 1% agarose gel.

[2] = tested on: RNase mixture (RNase A, RNase 1, RNase T1); experiment: Non-isotopic RNase inactivation assay (mouse total RNA, agarose gel); format: biochemical, human, E. coli and a fungus; design: key to RNase Inactivation Water / RNase Inactivation Buffer A / RNase Inactivation Buffer B / RNase Inactivation Buffer C: (+) indicates that the RNase mixture was inactivated; (−) indicates that the RNase mixture was not activated as determined by the non-isotopic assay; details: for RNase Inactivation Buffer B: 50 mM Tris-HCl (pH 7.0); for RNase Inactivation Buffer C: 30 mM NaCl, 3 mM sodium citrate (pH 7.5)
Text: The inventors routinely perform assays on RNA designed to assess RNase activity in a sample. Two different assays are typically used for the detection of ribonuclease activity, non-isotopic and isotopic. […] In both assays, the inactivation process is typically performed on a mixture of three different ribonucleases: RNase A, RNase 1, and RNase T1. Each ribonuclease is purified from a different species: […], E. coli and a fungus, respectively. The three RNases are very different from each other in their origin, substrate specificity and protein sequence. In this way, the inactivation process can test three completely different but well characterized ribonucleases. The standard stock RNase mixture employed in the following examples is prepared by combining 1 μl RNase 1 (100 U/μl; Ambion), 1 μl RNase cocktail (RNase A, 0.5 U/μl; RNase T1, 20 U/μl, Ambion) and 98 μl water. The non-isotopic assay uses total RNA isolated from mouse as the substrate for the RNase mixture. […] A quantity of 4 μg of total RNA isolated from mouse liver or brain was dissolved in an aqueous solution, usually water or 1 mM sodium citrate (pH 6.6). The treated ribonuclease sample was added to the total RNA and then incubated at 37° C. for 1 or 16 hours, depending on the sensitivity desired for the assay. After incubation, the RNA was fractionated in a formaldehyde 1% agarose gel. The RNA was detected by staining with ethidium bromide and then illuminating the gel with ultraviolet light. The RNA fluoresces in the gel. Untreated total RNA was also fractionated as a control with the test samples for comparative purposes. […] Intact total RNA has two major bands produced by the 28S and 18S ribosomal RNA. […] The RNase cocktail was made to various concentrations in different buffers in different DTT concentrations and incubated at 37° C. or 60° C. for 20 minutes. Total mouse RNA was added to the treated RNase mixture and incubated at 37° C. for one hour, fractionated in a formaldehyde denaturing 1% agarose gel and the RNA visualized by ethidium bromide staining and UV fluorescence.

[3] = RNase Mix 64 ng/ml, DTT 5 mM, 60° C. for 20 minutes
[4] = RNase Mix 64 ng/ml, DTT 10 mM, 37° C. for 20 minutes
[5] = RNase Mix 64 ng/ml, DTT 10 mM, 60° C. for 20 minutes
[6] = RNase Mix 95 ng/ml, DTT 5 mM, 60° C. for 20 minutes
[7] = RNase Mix 95 ng/ml, DTT 10 mM, 37° C. for 20 minutes
[8] = RNase Mix 95 ng/ml, DTT 10 mM, 60° C. for 20 minutes
[9] = RNase Mix 191 ng/ml, DTT 5 mM, 60° C. for 20 minutes
[10] = RNase Mix 191 ng/ml, DTT 10 mM, 37° C. for 20 minutes
[11] = RNase Mix 191 ng/ml, DTT 10 mM, 60° C. for 20 minutes
[12] = RNase Mix 191 ng/ml, DTT 20 mM, 60° C. for 20 minutes
[13] = RNase Mix 954 ng/ml, DTT 5 mM, 60° C. for 20 minutes
[14] = RNase Mix 954 ng/ml, DTT 10 mM, 37° C. for 20 minutes
[15] = RNase Mix 954 ng/ml, DTT 10 mM, 60° C. for 20 minutes
[16] = RNase Mix 954 ng/ml, DTT 20 mM, 60° C. for 20 minutes

DNase I, sequence (P00639 23-282): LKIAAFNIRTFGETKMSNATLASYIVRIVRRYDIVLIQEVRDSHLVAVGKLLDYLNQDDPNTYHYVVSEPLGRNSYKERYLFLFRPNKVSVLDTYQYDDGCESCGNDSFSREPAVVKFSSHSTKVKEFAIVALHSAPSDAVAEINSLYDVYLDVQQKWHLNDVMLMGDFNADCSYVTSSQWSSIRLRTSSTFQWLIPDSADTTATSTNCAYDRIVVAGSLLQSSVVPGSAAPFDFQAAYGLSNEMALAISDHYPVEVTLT

For `O[C@H](CS)[C@H](O)CS` [DTT, dithiothreitol], the “inhibition of reverse transcription by AMV reverse transcriptase” value [1] was “does not inhibit; also recorded: not inhibited”, the “DNase I activity after reducing/heat treatment” value (DNase I) was “not affected” and the “concentration of RNase mixture completely inactivated” value ([2]; 20 mM DTT, 1 mM sodium citrate (pH 6.4), 60° C. for 20 minutes, non-isotopic assay, 1 hour incubation) was “up to 200 ng/ml”. For the same compound, the “inactivation of sequentially added RNases” value ([2]; 20 mM DTT, 1 mM sodium citrate (pH 6.4), RNases 200 ng/ml per addition, heating at 60° C. for 20 minutes after each addition) was “completely inactivated”, the “concentration of RNase mixture completely inactivated in the presence of RNA” value ([2]; 20 mM DTT, mouse liver total RNA 4 μg/10 μl, 1 mM sodium citrate (pH 6.4), 60° C. for 20 minutes) was “up to 3.125 ng/ml” and the “effect of sequentially added RNases without reheating” value ([2]; 20 mM DTT, same buffer, not subjected to the 60° C. incubation) was “complete RNA degradation”. For the same compound, the “60° C. incubation time required for inactivation” value ([2]; RNase 200 ng/ml, 20 mM DTT, 60° C.) was “at least 4 minutes”, the “RNase Inactivation Buffer A” value ([2]; RNase Mix 64 ng/ml, DTT 5 mM, 60° C. for 20 minutes, 1 mM sodium citrate (pH 6.4)) was “+” and the “RNase Inactivation Buffer B” value [2, 3] was “+”. For the same compound, the “RNase Inactivation Buffer C” value [2, 3] was “+”, the “RNase Inactivation Water” value [2, 3] was “+” and the “RNase Inactivation Buffer A” value ([2]; RNase Mix 64 ng/ml, DTT 10 mM, 37° C. for 20 minutes, 1 mM sodium citrate (pH 6.4)) was “+”. The “RNase Inactivation Buffer B” value [2, 4] was “+”, the “RNase Inactivation Buffer C” value [2, 4] was “+” and the “RNase Inactivation Water” value [2, 4] was “+”. The “RNase Inactivation Buffer A” value ([2]; RNase Mix 64 ng/ml, DTT 10 mM, 60° C. for 20 minutes, 1 mM sodium citrate (pH 6.4)) was “+”, the “RNase Inactivation Buffer B” value [2, 5] was “+” and the “RNase Inactivation Buffer C” value [2, 5] was “+”. The “RNase Inactivation Water” value [2, 5] was “+”, the “RNase Inactivation Buffer A” value ([2]; RNase Mix 95 ng/ml, DTT 5 mM, 60° C. for 20 minutes, 1 mM sodium citrate (pH 6.4)) was “−” and the “RNase Inactivation Buffer B” value [2, 6] was “−”. The “RNase Inactivation Buffer C” value [2, 6] was “−”, the “RNase Inactivation Water” value [2, 6] was “−” and the “RNase Inactivation Buffer A” value ([2]; RNase Mix 95 ng/ml, DTT 10 mM, 37° C. for 20 minutes, 1 mM sodium citrate (pH 6.4)) was “−”. For the same compound, the “RNase Inactivation Buffer B” value [2, 7] was “−”, the “RNase Inactivation Buffer C” value [2, 7] was “−” and the “RNase Inactivation Water” value [2, 7] was “−”. The “RNase Inactivation Buffer A” value ([2]; RNase Mix 95 ng/ml, DTT 10 mM, 60° C. for 20 minutes, 1 mM sodium citrate (pH 6.4)) was “+”, the “RNase Inactivation Buffer B” value [2, 8] was “+” and the “RNase Inactivation Buffer C” value [2, 8] was “+”. The “RNase Inactivation Water” value [2, 8] was “+”, the “RNase Inactivation Buffer A” value ([2]; RNase Mix 191 ng/ml, DTT 5 mM, 60° C. for 20 minutes, 1 mM sodium citrate (pH 6.4)) was “−” and the “RNase Inactivation Buffer B” value [2, 9] was “−”. The “RNase Inactivation Buffer C” value [2, 9] was “−”, the “RNase Inactivation Water” value [2, 9] was “−” and the “RNase Inactivation Buffer A” value ([2]; RNase Mix 191 ng/ml, DTT 10 mM, 37° C. for 20 minutes, 1 mM sodium citrate (pH 6.4)) was “−”. For the same compound, the “RNase Inactivation Buffer B” value [2, 10] was “−”, the “RNase Inactivation Buffer C” value [2, 10] was “−” and the “RNase Inactivation Water” value [2, 10] was “−”. For the same compound, the “RNase Inactivation Buffer A” value ([2]; RNase Mix 191 ng/ml, DTT 10 mM, 60° C. for 20 minutes, 1 mM sodium citrate (pH 6.4)) was “+”, the “RNase Inactivation Buffer B” value [2, 11] was “+” and the “RNase Inactivation Buffer C” value [2, 11] was “+”. The “RNase Inactivation Water” value [2, 11] was “+”, the “RNase Inactivation Buffer A” value ([2]; RNase Mix 191 ng/ml, DTT 20 mM, 60° C. for 20 minutes, 1 mM sodium citrate (pH 6.4)) was “+” and the “RNase Inactivation Buffer B” value [2, 12] was “+”. For the same compound, the “RNase Inactivation Buffer C” value [2, 12] was “+”, the “RNase Inactivation Water” value [2, 12] was “+” and the “RNase Inactivation Buffer A” value ([2]; RNase Mix 954 ng/ml, DTT 5 mM, 60° C. for 20 minutes, 1 mM sodium citrate (pH 6.4)) was “−”. For the same compound, the “RNase Inactivation Buffer B” value [2, 13] was “−”, the “RNase Inactivation Buffer C” value [2, 13] was “−” and the “RNase Inactivation Water” value [2, 13] was “−”. For the same compound, the “RNase Inactivation Buffer A” value ([2]; RNase Mix 954 ng/ml, DTT 10 mM, 37° C. for 20 minutes, 1 mM sodium citrate (pH 6.4)) was “−”, the “RNase Inactivation Buffer B” value [2, 14] was “−” and the “RNase Inactivation Buffer C” value [2, 14] was “−”. For the same compound, the “RNase Inactivation Water” value [2, 14] was “−”, the “RNase Inactivation Buffer A” value ([2]; RNase Mix 954 ng/ml, DTT 10 mM, 60° C. for 20 minutes, 1 mM sodium citrate (pH 6.4)) was “−” and the “RNase Inactivation Buffer B” value [2, 15] was “−”. The “RNase Inactivation Buffer C” value [2, 15] was “−”, the “RNase Inactivation Water” value [2, 15] was “−” and the “RNase Inactivation Buffer A” value ([2]; RNase Mix 954 ng/ml, DTT 20 mM, 60° C. for 20 minutes, 1 mM sodium citrate (pH 6.4)) was “+”. The “RNase Inactivation Buffer B” value [2, 16] was “+”, the “RNase Inactivation Buffer C” value [2, 16] was “+” and the “RNase Inactivation Water” value [2, 16] was “+”. The RNase mixture inactivation ([2]; RNase mixture 64 ng/ml, 10 mM DTT, 37° C. for 20 minutes) was “inactivated”, the RNase activity inactivated ([2]; RNase mixture 200 ng/ml, 20 mM DTT, 60° C. for 1 minute) was “approximately 50%” and the RNase activity inactivated ([2]; RNase mixture 200 ng/ml, 20 mM DTT, 60° C. for 2 minutes) was roughly 80%. The RNase activity inactivated ([2]; RNase mixture 200 ng/ml, 20 mM DTT, 60° C. for 4 minutes) was roughly 100%, the “RNase inactivation in different buffers and solutions” value ([2]; RNase mixture 200 ng/ml, 20 mM DTT, 60° C. for 20 minutes, 17 solutions, non-isotopic) was “inactivated RNase activity in all of buffers and solutions tested” and the RNase mixture inactivation ([2]; RNase mixture 200 ng/ml, 20 mM DTT, 60° C. for less than 30 seconds) was “did not inactivate”. The RNase mixture inactivation ([2]; RNase mixture 954 ng/ml, 20 mM DTT, 60° C. for 20 minutes) was “inactivated” and the “RNase activity on retest after storage” value ([2]; solutions with inactivated RNases stored at 4° C. for one month) was “none of the solutions had detectable RNase activity”.
